According to PMC10747602, “Dose Response, Dosimetric, and Metabolic Evaluations of Replacement PFAS Perfluoro-(2,5,8-trimethyl-3,6,9-trioxadodecanoic) Acid (HFPO-TeA)” (Toxics, 2023):

Assay: Non-targeted analysis of plasma and liver (in vivo)
Set-up: species or system Sprague Dawley rats
Settings: for relative peak area abundance (RA) vs. HFPO-TeA, Plasma: 5 days, mean ± SD n=8
Description: Extracts of plasma (50 µL), liver (10 mg), and hepatocyte metabolism assay media (10 µL) were analyzed by high-resolution, accurate mass non-targeted analysis (NTA) for the detection and identification of potential biotransformation products of HFPO-TeA. A mixture of ^13C-labeled PFAS compounds (MPAC-C-ES, Wellington Laboratories, Guelph, ON, Canada) were used as tracers. Samples were extracted, as detailed above (in vivo) and below (in vitro), and then analyzed in triplicate in a randomized order on a Sciex X500R QTOF. Additional information on NTA instrumental analysis and data processing parameters is presented in Supplementary Text S8 and Tables S8 and S10 [52]. […] A screening list of potential biotransformation products was generated using the U.S. EPA web application CTS: Chemical Transformation Simulator 1.0 and Biotransformer 3.0 [53, 54]. In some instances, molecular structure predictions were performed using MetFrag. […]
tube, and then further crashed with 200 µL ACN. This was repeated twice more to generate a final combined supernatant volume of 600 µL. Supernatants were stored at -20 °C prior to analysis.
Samples were quantitated against matrix-matched calibration curves containing a minimum of 5 points spanning the range 0.99 – 141 ng/mg liver (wet weight, ww). For the calibration standards, commercial rat liver (BioIVT) was spiked with HFPO-TeA and PFHxDA, homogenized, and extracted using the above procedure. […]
Support ing Text S8: Non- Target ed Analysis Met hod and Data Processing Each sample batch included a mobile phase blank and solvent blank to monitor for the presence of laboratory contamination, and a system suitability sample consisting of the set of isotopically labeled PFAS tracer compounds spiked into extraction solvent to monitor instrument performance prior to sample analysis. […] A high-resolution, exact mass spectral library created in house from IDA scans of commercially available PFAS standards analyzed on the same mass spectrometer as the samples and using the same instrument parameters was used for library searches. […]

SMILES | relative peak area abundance (RA) vs. HFPO-TeA, Plasma (HFPO-TeA dose 6.3 mg/kg/day) | relative peak area abundance (RA) vs. HFPO-TeA, Plasma (HFPO-TeA dose 17 mg/kg/day) | presence of predicted conjugates (non-targeted analysis) (plasma or liver)
O=C(O)C(F)(OC(F)(F)C(F)(OC(F)(F)C(F)(F)C(F)(F)F)C(F)(F)F)C(F)(F)F (stereo not drawn) [HFPO-TA, perfluoro-(2,5-dimethyl-3,6-dioxanonanoic) acid] | 0.05 ± 0.04 | 1.83 ± 0.85 | –
O=C(O)C(F)(OC(F)(F)C(F)(OC(F)(F)C(F)(OC(F)(F)C(F)(F)C(F)(F)F)C(F)(F)F)C(F)(F)F)C(F)(F)F (stereo not drawn) [HFPO-TeA, perfluoro-(2,5,8-trimethyl-3,6,9-trioxadodecanoic) acid] | – | – | No ions that suggested the presence of the three predicted HFPO-TeA conjugates were observed
